According to article PMC12627232 (MedComm, 2025):

What was measured:
MDA-MB-231 cells [1] = test: EdU assay; format: cell-based, human; conditions: MDA-MB-231, 2 µM, 24 h
Method: The EdU assay is performed by BeyoClick EdU kit. MDA‐MB‐231 cells were cultured in a 6‐well plate overnight. […] Following labeling, cells are fixed with 4% PFA for 15 min, washed three times with wash buffer, and permeabilized using 0.3% Triton X‐100 for 15 min. After another wash, endogenous peroxidases are blocked for 20 min. For detection, a click reaction mix (containing Biotin Azide, CuSO4, and click additive) is added and incubated for 30 min. After washing, streptavidin–HRP is applied and reacted for 30 min, followed by 5 min DAB substrate incubation. Finally, cells are washed, optionally counterstained, and imaged under a microscope.

HDAC7 = biological target: T1, HDAC7 (Homo sapiens, UniProt Q8WUI4); test: HDACs enzymatic assay HDAC7; format: biochemical; conditions: Class IIa
T1 construct: purchased BPS BIOSCIENCE Inc 50007
T1 sequence (Q8WUI4 whole entry): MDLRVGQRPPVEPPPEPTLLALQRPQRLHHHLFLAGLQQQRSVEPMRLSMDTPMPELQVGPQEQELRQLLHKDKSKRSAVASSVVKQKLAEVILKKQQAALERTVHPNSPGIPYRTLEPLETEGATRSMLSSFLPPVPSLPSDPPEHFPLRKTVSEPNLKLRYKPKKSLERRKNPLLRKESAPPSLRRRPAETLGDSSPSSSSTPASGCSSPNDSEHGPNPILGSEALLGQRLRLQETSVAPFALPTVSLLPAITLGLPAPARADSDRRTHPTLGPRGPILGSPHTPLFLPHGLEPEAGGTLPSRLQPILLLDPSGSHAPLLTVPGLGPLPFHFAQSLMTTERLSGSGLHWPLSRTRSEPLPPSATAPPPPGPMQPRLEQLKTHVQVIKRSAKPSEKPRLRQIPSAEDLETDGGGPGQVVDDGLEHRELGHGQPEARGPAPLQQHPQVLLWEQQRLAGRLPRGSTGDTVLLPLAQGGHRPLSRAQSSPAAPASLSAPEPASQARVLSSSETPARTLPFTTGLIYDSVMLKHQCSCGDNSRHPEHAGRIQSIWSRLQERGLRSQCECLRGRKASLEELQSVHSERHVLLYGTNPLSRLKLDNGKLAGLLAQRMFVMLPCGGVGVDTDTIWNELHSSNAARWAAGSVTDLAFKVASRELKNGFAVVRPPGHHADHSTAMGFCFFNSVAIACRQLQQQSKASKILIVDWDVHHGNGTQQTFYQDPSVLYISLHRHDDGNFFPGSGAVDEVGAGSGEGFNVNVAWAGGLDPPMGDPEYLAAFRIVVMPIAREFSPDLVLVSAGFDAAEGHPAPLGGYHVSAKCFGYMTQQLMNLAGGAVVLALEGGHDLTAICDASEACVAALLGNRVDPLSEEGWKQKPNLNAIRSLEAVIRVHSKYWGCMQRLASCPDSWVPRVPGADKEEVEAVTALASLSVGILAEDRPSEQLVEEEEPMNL
Method: HDACs enzymatic assays were conducted according to our previous work. […] Substrates (Boc‐Lys(acetyl)‐AMC for HeLa nuclear extract, Ac‐Leu‐Gly‐Lys (Tfa)‐AMC for HDAC4, HDAC5, HDAC6, HDAC7, HDAC9, HDAC10, and HDAC11, Boc‐Lys(triflouroacetyl)‐AMC for HDAC8 and Ac‐Leu‐Gly‐Lys(acetyl)‐AMC for HDAC1, HDAC2, HDAC3) were added to the mixture. The blank group was set to no enzyme or drug but contains substrates and the control group was set to no drug but contains substrates and enzymes to each 96‐well plate. After 30 min of incubation at 37°C, the mixture was terminated with 1 mg/mL trypsin and 3 µM TSA. After another 30 min, the fluorescence intensity was measured using a Varioskan plate reader at 360/460 nm. […] The inhibition curves and IC50 values were simulated and calculated using the log(inhibitor) versus response (three parameters) mode in GraphPad Prism software.

MC38 syngeneic model = test: MC38 syngeneic model; format: in vivo
Method: C57BL/6J mice were obtained from HFK Bioscience (Beijing, China) and fed in laminar flow cabinets under SPF conditions. With the approval of the ethics committee of Shandong University, the animal experiments were conducted. […]. By the time tumors reached certain volumes, SDFZ‐8 treatment (SDFZ‐8 in PBS solution containing 5% DMSO, 60 mg/kg, qd, i.g.) was started, with five animals per treatment group. Body weight and tumor size were measured every day during the 14‐day treatment.

MDA-MB-231 cells [2] = test: Immunofluorescence of ac-H3; format: cell-based, human; conditions: 1 µM, 24 h
Method: Cells (10^5 cells per plate) were seeded in confocal dishes and incubated with drugs or DMSO (equal volume to experimental groups) for 24 h. The medium was removed, and cells were fixed with 4% polyoxymethylene solution for 30 min. The cells were treated with 0.2% Triton X‐100 for 10 min and 1% BSA for 1 h at room temperature. After that, cells were washed twice with TBST and incubated with anti‐H3 antibody (Cell Signal Technology; #13998) at 4°C overnight. When incubation finished, cells were washed five times with TBST and Cy3‐labeled goat anti‐rabbit IgG (Beyotime; #A0516) and DAPI solution (Solarbio) were added. After 1 h incubation and washing five times with TBST, cells were captured with Leica TCS SP8 super‐resolution laser scanning confocal microscope. The colocalization of ac‐H3 and DAPI was analyzed with ImageJ.

[3] = In vitro metabolic assay, mouse liver microsomes; format: in vitro ADME
Method: Compounds were prepared in a working solution of 2 mg/mL with methanol. […]; Research Institute for Liver Disease (Shanghai) Co., Ltd) were mixed with NADPH (the final concentration is 4 mM), MgCl2 (the final concentration is 6 mM), and shaken at 37°C for 5 min. Then, compound solutions were added to the system and incubated for 0, 10, 20, 30, 60, 90, and 120 min at 37°C under shaking conditions. The mixture was quenched with cold acetonitrile and analyzed with a Shimadzu LC‐20AT system and a C18‐silica column (Thermo; 4.6 × 250 mm, 5 µm).

HL-60 = test: CCK-8 antiproliferation assay; format: cell-based; conditions: Homo sapiens, 48 h treatment
Method: (§1) Cell lines purchased from the Cell Bank of Type Culture Collection of the Chinese Academy of Sciences (Shanghai, China) were passaged after resuscitation. […] The third to tenth passages of cells were used for experiments. […] After incubation, 20 µL CCK‐8 solution (MeilunBio) was added. Two hours later, absorption was measured by a Varioskan plate at 450 nm. Inhibition curves and IC50 values were simulated and calculated using the log(inhibitor) versus response (three parameters) mode via GraphPad Prism software.

RPMI-8226 = test: CCK-8 antiproliferation assay; format: cell-based; conditions: Homo sapiens, 48 h treatment
Method: as §1

KM3 = test: CCK-8 antiproliferation assay; format: cell-based; conditions: Homo sapiens, 48 h treatment
Method: as §1

PC-3 = test: CCK-8 antiproliferation assay; format: cell-based; conditions: Homo sapiens, 48 h treatment
Method: as §1

NCI-H929 = test: CCK-8 antiproliferation assay; format: cell-based; conditions: Homo sapiens, 48 h treatment
Method: as §1

MCF-7 = test: CCK-8 antiproliferation assay; format: cell-based; conditions: Homo sapiens, MCF7, 48 h treatment
Method: as §1

AGS = test: CCK-8 antiproliferation assay; format: cell-based; conditions: Homo sapiens, 48 h treatment
Method: as §1

Jurkat = test: CCK-8 antiproliferation assay; format: cell-based; conditions: Homo sapiens, 48 h treatment
Method: as §1

MDA-MB-231 cells [4] = test: Colony formation assay; format: cell-based, human; conditions: 2 µM, 48 h
Method: The colony formation assay is performed by seeding 1000 MDA‐MB‐231 cells per well into 6‐well plates and allowing them to adhere overnight. […] Once colonies are visible (≥50 cells per colony), the medium is removed, and cells are gently washed with PBS, fixed with 4% paraformaldehyde for 15 min, and stained with Giemsa stain solution for 30 min. Excess stain is rinsed with water, and plates are air‐dried. Colonies are then imaged.

In the case of `O=C(CCCCCCNC(=O)c1cc(OCCc2ccccc2)c2ccccc2n1)NO` [SDFZ-8], the EdU positive cells (MDA-MB-231 cells [1]) is reported as “decreased”, the IC50 (HDAC7) is reported as > 10000 nM and the “toxicity in organs (heart, liver, spleen, lung, kidney), H&E staining” value (MC38 syngeneic model) is reported as “low toxicity”. For the same compound, the TGI (MC38 syngeneic model; C57BL/6J mice, SDFZ-8 60 mg/kg qd i.g., 14-day treatment) was 71%, the “immunofluorescence intensities of ac-H3” value (MDA-MB-231 cells [2]) was “notably stronger than those of cells treated with SAHA” and the half-life ([3]; mouse liver microsomes, read-out: half-life T 1/2 in mouse liver microsomes) was 12.3 min. The microsomal CLint ([3]; mouse, microsomes) was 56.3 µL/min/mg, the IC50 (HL-60) was 94 ± 4 nM and the IC50 (RPMI-8226) was 460 ± 30 nM. The IC50 (KM3) was 100 ± 5 nM, the IC50 (PC-3) was 620 ± 70 nM and the IC50 (NCI-H929) was 100 ± 5 nM. It also gave an IC50 (MCF-7) of 1960 ± 60 nM, an IC50 (AGS) of 560 ± 20 nM and an IC50 (Jurkat) of 89 ± 1 nM. The “colony formation of MDA-MB-231” value (MDA-MB-231 cells [4]) was “significantly inhibited”.
